How the values were obtained:
[1] = target: T1, human bombesin BB1 receptors (Homo sapiens, UniProt P28336); experiment: Bombesin BB1 receptor binding assay, [125I][6-14]Bombesin, CHO cell membranes; conditions: membranes from CHO cells expressing human BB1
T1 construct: expressed in transfected cells; host or cells: CHO cells
Protocol: The compounds of the present invention are a potent class of bombesin antagonists. Bombesin antagonism may be measured using the following binding assay using membranes from CHO cells expressing the human bombesin BB1 receptors.
Cells are maintained in Ham's F12 medium (Life Technologies Ltd, Cat No. 31765-027) supplemented with 10% FBS (Life Tech. Ltd., 10109-155) and 2 mM glutamine (or Glutamax in media). Cells are routinely passaged once weekly (split 1:5, approximate seeding density=1-4 million per […] flask), and fed every 2 days with fresh medium. Cells are frozen down (in Hams F12 containing 5% DMSO) 4-7 days after passaging and stored at −70° C. until required for use in binding experiments.
Frozen cells rapidly thawed and diluted with excess medium (each aliquot made up to 40 ml).
Cells harvested by centrifuging at 3000 g for 4 min at 21° C.
Cells resuspended in known volume of assay buffer, and cell count performed.
Membranes prepared by polytronning (setting 5, 10 secs). […]
(§1) For each assay plate, total (1% DMSO) and non-specific (1 μM, 1% DMSO), binding will be measured for the ligand on the receptor. Specific binding of the radioactive ligand to the receptor can thus be calculated to which specific binding of the radioactive ligand in the presence of a competing compound can be calculated and expressed as percentage inhibition of radioactive ligand binding.

BB2 = BB2 (Homo sapiens, UniProt P30550); experiment: Bombesin BB2 receptor binding assay
Protocol: Drug dilutions are performed using the Tecan Genesis/Miniprep handling stations. Assays are set up as follows
25 μl test compound/total/NSB
200 μl cell memb preparation
Assay additions using deep well Multidrop.
Non-specific binding is defined by 1 μM Bombesin 1% DMSO (final concentration).
1. Add membranes to start incubation. Vortex and incubate at 21° C. GRP assay=90 min; NMB assay=60 min.
2. Terminate reactions by rapid filtration onto GF\C filters or GF\C Unifilter plates presoaked in 0.2% PEI for >1 hour) using the appropriate Brandel cell harvester.
3. Wash with ice-cold HEPES HCl (50 mM, pH 7.4 at 21° C.).
Filter mats 6×1 ml total wash volume
Unifilter plates 2×1 ml total wash volume
4. Unifilters are dried at 50° C. for 60 minutes. Add 50 μl Microscint-0, Seal plates with Top-Seal A and count using TopCount NXT.
as §1

T1 sequence (P28336 whole entry): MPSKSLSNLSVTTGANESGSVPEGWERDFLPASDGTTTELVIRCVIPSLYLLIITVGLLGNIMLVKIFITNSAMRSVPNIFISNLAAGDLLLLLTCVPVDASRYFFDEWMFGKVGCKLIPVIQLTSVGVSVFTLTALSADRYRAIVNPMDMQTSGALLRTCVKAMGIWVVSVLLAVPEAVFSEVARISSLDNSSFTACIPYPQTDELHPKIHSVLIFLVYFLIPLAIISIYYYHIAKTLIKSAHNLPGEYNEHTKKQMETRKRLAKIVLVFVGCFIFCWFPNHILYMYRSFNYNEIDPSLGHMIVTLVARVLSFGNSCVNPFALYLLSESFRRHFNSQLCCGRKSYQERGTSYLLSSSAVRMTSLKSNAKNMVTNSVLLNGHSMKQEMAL
Chain of BB2 (P30550 whole entry): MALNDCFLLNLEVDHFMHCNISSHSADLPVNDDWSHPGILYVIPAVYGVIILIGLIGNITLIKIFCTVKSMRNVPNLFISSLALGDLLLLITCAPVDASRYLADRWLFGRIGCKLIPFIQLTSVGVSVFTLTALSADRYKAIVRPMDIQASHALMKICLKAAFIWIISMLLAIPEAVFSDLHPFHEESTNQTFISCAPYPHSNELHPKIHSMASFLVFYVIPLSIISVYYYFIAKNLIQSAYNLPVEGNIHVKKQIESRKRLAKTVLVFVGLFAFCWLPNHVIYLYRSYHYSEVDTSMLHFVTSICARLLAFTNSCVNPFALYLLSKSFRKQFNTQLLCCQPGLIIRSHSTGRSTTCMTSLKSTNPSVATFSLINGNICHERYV

Row | melting point | Ki [1] | Ki (BB2) | Compound
1 | 112.5 to 113.5 °C | – | – | CC(C)c1cccc(C(C)C)c1NC(=O)N(Cc1ccccc1)CC1(c2ncccn2)CCCCC1 [Example 181, 1-Benzyl-3-(2,6-diisopropyl-phenyl)-1-(1-pyrimidin-2-yl-cyclohexylmethyl)-urea]
2 | 102 to 103 °C | – | – | Cc1cccc(CNC(=O)N(CC2CC2)CC2(c3ccccn3)CCCCC2)c1C [Example 184, 1-Cyclopropylmethyl-3-(2,3-dimethyl-benzyl)-1-(1-pyridin-2-yl-cyclohexylmethyl)-urea]
3 | 150 to 152 °C | – | – | CC(C)c1cccc(C(C)C)c1NC(=O)N(Cc1ccccc1)CC1(c2nnnn2C)CCCCC1 [Example 180, 1-Benzyl-3-(2,6-diisopropyl-phenyl)-1-[1-(1-methyl-1H-tetrazol-5-yl)-cyclohexylmethyl]-urea]
4 | – | 82 nM | 3590 nM | O=C(NCc1cccc(Cl)c1Cl)N(Cc1ccc(O)cc1)CC1(c2ccccn2)CCCCC1 [Example 1, 3-(2,3-Dichloro-benzyl)-1-(4-hydroxy-benzyl)-1-(1-pyridin-2-yl-cyclohexylmethyl)-urea]

Source: patent US20040063643A1, “Bombesin antagonists” (Pfizer Inc., priority 2002, published 2004)
